Columns and labels:
Assay in all cases: relative IC50 (inflection point of fitted viability curve, relative to fitted max inhibition); higher = less sensitive
Details in all cases: 72 h
DERL-7 (IL-2 2.5 ng/mL) = tested on: DERL-7 (IL-2 2.5 ng/mL)
Method: (§1)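 Drug sensitivity and resistance testing: 5 concentrations over a 10,000-fold range, 72 h at 37 °C, viability by CellTiter-Glo normalised to DMSO and benzethonium chloride controls. IC50 is the inflection point of a logistic fit (min fixed at 0, max fitted), so it is relative to the fitted maximal inhibition. Kept only where fitted max inhibition is at least 50%.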

IMC-1 (IL-2 20 ng/mL) = tested on: IMC-1 (IL-2 20 ng/mL)
Method: as §1

[1] = tested on: normal primary NK cells, pool 3 (3 donors) (IL-2 2.5 ng/mL)
Method: as §1

[2] = tested on: normal primary NK cells, pool 2 (3 donors) (IL-2 2.5 ng/mL)
Method: as §1

NKL (IL-2 2.5 ng/mL) = tested on: NKL (IL-2 2.5 ng/mL)
Method: as §1

KAI3 (IL-2 2.5 ng/mL) = tested on: KAI3 (IL-2 2.5 ng/mL)
Method: as §1

NK-92 (IL-2 2.5 ng/mL) = tested on: NK-92 (IL-2 2.5 ng/mL)
Method: as §1

NK-YS (IL-2 2.5 ng/mL) = tested on: NK-YS (IL-2 2.5 ng/mL)
Method: as §1

[3] = tested on: normal primary NK cells, pool 1 (3 donors) (IL-2 2.5 ng/mL)
Method: as §1

YT (IL-2 2.5 ng/mL) = tested on: YT (IL-2 2.5 ng/mL)
Method: as §1

SNK-6 (IL-2 2.5 ng/mL) = tested on: SNK-6 (IL-2 2.5 ng/mL)
Method: as §1

[4] = tested on: normal primary NK cells, pool 1 (3 donors), resting (IL-2 0 ng/mL)
Method: as §1

KHYG-1 (IL-2 2.5 ng/mL) = tested on: KHYG-1 (IL-2 2.5 ng/mL)
Method: as §1

Compound	relative IC50 (DERL-7 (IL-2 2.5 ng/mL))	relative IC50 (IMC-1 (IL-2 20 ng/mL))	relative IC50 [1]	relative IC50 [2]	relative IC50 (NKL (IL-2 2.5 ng/mL))	relative IC50 (KAI3 (IL-2 2.5 ng/mL))	relative IC50 (NK-92 (IL-2 2.5 ng/mL))	relative IC50 (NK-YS (IL-2 2.5 ng/mL))	relative IC50 [3]	relative IC50 (YT (IL-2 2.5 ng/mL))	relative IC50 (SNK-6 (IL-2 2.5 ng/mL))	relative IC50 [4]	relative IC50 (KHYG-1 (IL-2 2.5 ng/mL))
CC(=O)NCC(=O)N1[C@@H]2CC[C@H]1c1ccc(Nc3ncc(C(F)(F)F)c(NC4CCC4)n3)cc12	0.0543 µM	0.0919 µM	1.31 µM	0.766 µM	0.101 µM	0.095 µM	0.117 µM	0.111 µM	0.975 µM	0.439 µM	0.02 µM	4.4 µM	0.0408 µM
COC(=O)c1ccc2c(c1)NC(=O)/C2=C(\Nc1ccc(N(C)C(=O)CN2CCN(C)CC2)cc1)c1ccccc1 [Nintedanib]	1.21 µM	3.98 µM	2.73 µM	1.58 µM	0.902 µM	1.85 µM	1.07 µM	1.7 µM	1.2 µM	2.58 µM	4.28 µM	1.01 µM	1.72 µM
COC(=O)C[C@](O)(CCCC(C)(C)O)C(=O)O[C@@H]1C(OC)=C[C@]23CCCN2CCc2cc4c(cc2[C@H]13)OCO4 [Omacetaxine]	0.00754 µM	0.0336 µM	0.0106 µM	0.00502 µM	0.0298 µM	0.00632 µM	0.0257 µM	0.0307 µM	0.00662 µM	0.0175 µM	0.00673 µM	0.00115 µM	0.0352 µM
COc1cccc2c1C(=O)c1c(O)c3c(c(O)c1C2=O)C[C@@](O)(C(C)=O)C[C@@H]3O[C@H]1C[C@H](N)[C@H](O)[C@H](C)O1 [Daunorubicin]	0.0217 µM	0.0192 µM	0.042 µM	0.0208 µM	0.00374 µM	0.0546 µM	0.0457 µM	0.0311 µM	0.0216 µM	0.0408 µM	0.0347 µM	0.0157 µM	0.0382 µM
CN(C)c1cc2c(cc1Sc1nc3c(N)nccc3n1CCNCC(C)(C)C)OCO2 [CUDC-305]	0.164 µM	0.301 µM	0.308 µM	0.208 µM	0.293 µM	0.114 µM	0.204 µM	0.158 µM	0.232 µM	0.302 µM	0.328 µM	0.199 µM	0.243 µM
COc1ccc(C[C@H](NC(=O)[C@H](C)NC(=O)CN2CCOCC2)C(=O)N[C@@H](Cc2ccccc2)C(=O)C2(C)CO2)cc1 (stereo in doubt) [ONX-0914]	0.0187 µM	0.158 µM	0.0618 µM	0.0274 µM	0.029 µM	0.0181 µM	0.0244 µM	0.0381 µM	0.0307 µM	0.0647 µM	0.0626 µM	0.0201 µM	0.142 µM
C[C@@H]1C[C@H]2O[C@@H]2/C=C\C=C\C(=O)Cc2c(Cl)c(O)cc(O)c2C(=O)O1 [Radicicol]	0.0373 µM	0.31 µM	0.132 µM	0.0752 µM	0.134 µM	0.0721 µM	0.13 µM	0.198 µM	0.126 µM	0.423 µM	0.0818 µM	0.52 µM	0.209 µM
C=CC(=O)Nc1cc2c(Nc3ccc(F)c(Cl)c3)ncnc2cc1OCCCN1CCOCC1 [Canertinib]	1.08 µM	3.7 µM	1.29 µM	0.71 µM	1.29 µM	1.1 µM	1.18 µM	1.99 µM	0.402 µM	1.97 µM	2.98 µM	0.333 µM	2.67 µM
CCOC(=O)CCNc1cc(N2CCc3ccccc3CC2)nc(-c2ccccn2)n1 [GSK-J4]	2.48 µM	1.23 µM	2.11 µM	3.28 µM	3.37 µM	3.34 µM	0.837 µM	3.32 µM	2.1 µM	2.67 µM	3.02 µM	1.28 µM	1.74 µM
O=c1cc(N2CCOCC2)oc2c(-c3ccccc3)cccc12	5.89 µM	35.2 µM	16.8 µM	11.7 µM	5.08 µM	11.5 µM	12.3 µM	9.06 µM	13.4 µM	8.33 µM	4.83 µM	6.67 µM	13.6 µM
O=C(/C=C\n1cnc(-c2cc(C(F)(F)F)cc(C(F)(F)F)c2)n1)NNc1cnccn1 [Selinexor]	0.0651 µM	0.497 µM	0.0808 µM	0.0524 µM	0.106 µM	0.0933 µM	0.168 µM	0.166 µM	0.0767 µM	0.0641 µM	0.0483 µM	0.0242 µM	0.152 µM

— the supplement of paper PMC5908809
